This is an account of results in patent publication EP2135612A1, “Use of ATP in the preparation of a medicament for treating, alleviating and/or enhancing survival of pre-terminal cancer patients” (Universiteit van Maastricht, priority 2008, dated 2009).

The test system of test [1] is TNF-α. The conditions noted are these: ex vivo stimulated whole blood; via P2Y11 receptor; cited from earlier work.
Test [2] has as its system IL-10. The conditions noted are these: ex vivo stimulated whole blood; cited from earlier work.
For test [3], the system named is pre-terminal cancer patients. The experiment in a line: Randomized clinical trial: survival (Cox regression, Kaplan-Meier). In kind it is in vivo. Here is the method: (§1) Ninety-nine pre-terminal cancer patients (estimated life expectancy 1-6 mo) with mixed tumor types were randomly allocated to receive either ATP i.v. weekly (8 h/wk, max. 50 µg/kg.min) for 8 weeks, or no ATP (control group). Nutritional status parameters were assessed until 8 weeks, and analyzed by repeated-measures analysis of covariance. Cox proportional hazards models were fitted to assess the effect of ATP on short term (0-8 weeks) and long term (0-6 months) survival.
(§2) After baseline measurements, patients were stratified for center, tumor type, and weight loss (≤5% vs. >5% over past 6 months), and then randomly assigned to receive either usual care, standard nutritional advice and ATP (ATP group), or usual care and standard nutritional advice alone (control) group), using computer-generated random numbers with permutation blocks of four. In both groups, nutritional status parameters and co-interventions were assessed until 8 weeks.
(§3) Patients allocated to the ATP group received weekly ATP infusions during 8-10 hours over a period of 8 weeks (21). The first ATP infusion was offered under medical supervision at the day care center of the participating hospitals. ATP infusions were started at a dose rate of 20 µg/kg·min and increased in steps of 10 µg/kg·min per 10 minutes, until reaching a maximum dose rate of 50 µg/kg·min, or the maximally tolerated dose (MTD) if this was lower, in case of side effects. Thereafter, ATP was Infused at a continuous rate. Subsequent infusions were given at MTD in the patient's home.
Cox regression models were fitted including interaction terms between treatment and dummy variables for short term (i.e. 0-8 wks) and long term survival (i.e. 0-6 mo; dummy variables for 0-8 wks and 8 wks-6 mo were combined into a single dummy variable (0-6 mo) since Cox proportional hazards assumption was tested and not rejected). Median survival time was determined by extrapolation from confounder-adjusted Kaplan Meier plots. Because of previously shown survival benefit of ATP treatment in weight-losing stage IIIB NSCLC patients (18), we also performed stratified analyses in weight-stable and weight-losing patients separately defined as ≤5% or >5% weight loss over the past 6 months (22).
All models were appropriately adjusted for confounders. Two-tailed p-values <0.05 were considered statistically significant.

In test [4] the test system is stage IIIB/IV NSCLC patients. Conditions: 15 chemotherapy-naïve stage IIIB/IV NSCLC patients; one to four 96-hour cycles i.v. ATP 50-65 µg/kg.min at 4-week intervals; cited from earlier work.
Test [5] concerns patients with non-small-cell lung cancer (NSCLC). Conditions: cited from earlier work.
For test [6], the system named is pre-terminal cancer patients. Description: Randomized clinical trial: nutritional status (anthropometric measurements, nutritional intake) during the 8-week ATP intervention. The class given is in vivo. Here is the method: as §1, §2, §3
Body height was determined using a flexible measuring tape. Body weight was measured without shoes, using an electronic scale (Soehnle 7407 Translucia, Germany). Triceps skin fold thickness was measured in triplicate at the dominant arm, with a Holtain® skin fold caliper (CMS weighing equipment LTD, London UK), and the median used for further calculations. Mid-upper arm circumference was measured in duplicate at the dominant side with a flexible measuring tape, and the mean value was used for further calculations.
In order to exclude inter-observer variability, longitudinal measurements in one patient were performed by one observer. Nutritional intake was assessed by a 3-day food diary, including meal preparation details, and checked by an experienced dietician. Intake of energy and protein was calculated using the Dutch Food Composition Table 2001 (NEVO, The Hague, The Netherlands), by the Software Program Komeet (version 4.0.58; BaS Nutrition Software, Arnhem, The Netherlands).
Data were doubly entered and analyzed according to the intention-to-treat principle. Curves were fitted to describe the time course of nutritional status parameters, and differences over time between the two groups appraised by repeated measurement analysis of covariance, using SAS Proc Mixed version 9.1 (SAS Institute Inc., Cary, NC, USA). Independent variables were the treatment indicator variable, the baseline measurement, measurement time, and the interaction between time and treatment. Statistical significance of treatment effects was assessed by testing the interaction between time and treatment. For weight analyses, patients with oedema and/or ascites were excluded. Because of the favorable previous results in patients with lung cancer (17), all analyses were repeated for this subgroup separately.

As to `Nc1ncnc2c1ncn2[C@@H]1O[C@H](COP(=O)(O)OP(=O)(O)OP(=O)(O)O)[C@@H](O)[C@H]1O` [ATP, adenosine 5'-triphosphate], in test [1], the TNF-α release entry is on record as “inhibited”. Moreover, the IL-10 release entry in test [2] is reported as “enhanced”. For the same molecule, the “patients still alive on the census date” value in test [3] (census date 10 September 2007, ATP group n=51) turned out to be 6 patients. The “HR, survival” value in test [3] (lung cancer patients with >5% overall weight loss, p=0.052) was found to be 0.21. In addition, the “HR, survival 0-8 weeks” value in test [3] (patients with lung cancer (n=44)) is on record as 0.17. Moreover, in test [3] (patients with lung cancer (n=44), p=0.025), the “HR, survival 0-6 months” value worked out at 0.35. Also, the “HR of ATP vs. control, short-term (0-8 weeks) survival” value in test [3] (total group (ATP n=51; control n=48), p=0.037) is reported as 0.40. In test [3] (total group, ATP group, extrapolated from confounder-adjusted Kaplan Meier plots), the Median survival is listed as 150 days. Besides, the “HR, long term survival (0-6 months)” value in test [3] (total group, p=0.26, not significant) amounted to 0.71; in test [3] (weight-stable patients, p=0.014) it was 0.40. Further, the effect on survival entry in test [3] (weight-losing patients (>5% weight loss over past 6 months)) was “No significant effect”. In addition, the “HR, survival during the 8-week intervention” value in test [3] (weight-stable patients (≤5% weight loss over past 6 months; ATP n=33; control n=31), p=0.001) worked out at 0.20. In addition, the stable disease in test [4] was 8 patients. Besides, the “effects on nutritional intake, body weight, fat and muscle mass” value in test [5] (ATP infusions over 30 h at 2- to 4-week intervals, max. 75 µg/kg.min) is reported as “marked beneficial effects”. Besides, the survival result in test [5] (weight-losing patients with stage IIIB NSCLC) is “highly significant survival benefit”. For the same molecule, the “Weight, change per 8 weeks, ATP group Estimate” value in test [6] (ATP i.v. weekly 8-10 h, max. 50 µg/kg·min, 8 weeks, n=26, oedema/ascites excluded) was -2.62 kg. Further, in test [6] (ATP i.v. weekly, max. 50 µg/kg·min, 8 weeks, n=48), the “Triceps skin fold thickness, change per 8 weeks, ATP group Estimate” value is -1.84 mm. Also, in test [6] (ATP i.v. weekly, max. 50 µg/kg·min, 8 weeks, n=49), the “Mid-upper arm circumference, change per 8 weeks, ATP group Estimate” value is -2.24 cm. Further, the “intake of energy and protein, difference between the two groups” value in test [6] (ATP vs. control, 8 weeks, 3-day food diary) is recorded as “No statistically significant difference”. Further, the “Triceps skin fold thickness, Between group difference Estimate per 8 weeks” value in test [6] (ATP vs. control, p=0.009) is on record as 1.76 mm.
